Here are results for 5 molecules from ChEMBL document CHEMBL3580612, “Top-down Targeted Metabolomics Reveals a Sulfur-Containing Metabolite with Inhibitory Activity against Angiotensin-Converting Enzyme in Asparagus officinalis” (J Nat Prod, 2015).

The test deals with Angiotensin-converting enzyme (Homo sapiens, UniProt P12821). Kind of test: Inhibition of ACE (unknown origin) using 3-Hydroxybutylyl-Gly-Gly-Gly substrate assessed as reduction in 3-Hyroxybutylic acid generation incubated for 1 hr by colorimetric assay.
Angiotensin-converting enzyme, sequence (P12821 whole entry): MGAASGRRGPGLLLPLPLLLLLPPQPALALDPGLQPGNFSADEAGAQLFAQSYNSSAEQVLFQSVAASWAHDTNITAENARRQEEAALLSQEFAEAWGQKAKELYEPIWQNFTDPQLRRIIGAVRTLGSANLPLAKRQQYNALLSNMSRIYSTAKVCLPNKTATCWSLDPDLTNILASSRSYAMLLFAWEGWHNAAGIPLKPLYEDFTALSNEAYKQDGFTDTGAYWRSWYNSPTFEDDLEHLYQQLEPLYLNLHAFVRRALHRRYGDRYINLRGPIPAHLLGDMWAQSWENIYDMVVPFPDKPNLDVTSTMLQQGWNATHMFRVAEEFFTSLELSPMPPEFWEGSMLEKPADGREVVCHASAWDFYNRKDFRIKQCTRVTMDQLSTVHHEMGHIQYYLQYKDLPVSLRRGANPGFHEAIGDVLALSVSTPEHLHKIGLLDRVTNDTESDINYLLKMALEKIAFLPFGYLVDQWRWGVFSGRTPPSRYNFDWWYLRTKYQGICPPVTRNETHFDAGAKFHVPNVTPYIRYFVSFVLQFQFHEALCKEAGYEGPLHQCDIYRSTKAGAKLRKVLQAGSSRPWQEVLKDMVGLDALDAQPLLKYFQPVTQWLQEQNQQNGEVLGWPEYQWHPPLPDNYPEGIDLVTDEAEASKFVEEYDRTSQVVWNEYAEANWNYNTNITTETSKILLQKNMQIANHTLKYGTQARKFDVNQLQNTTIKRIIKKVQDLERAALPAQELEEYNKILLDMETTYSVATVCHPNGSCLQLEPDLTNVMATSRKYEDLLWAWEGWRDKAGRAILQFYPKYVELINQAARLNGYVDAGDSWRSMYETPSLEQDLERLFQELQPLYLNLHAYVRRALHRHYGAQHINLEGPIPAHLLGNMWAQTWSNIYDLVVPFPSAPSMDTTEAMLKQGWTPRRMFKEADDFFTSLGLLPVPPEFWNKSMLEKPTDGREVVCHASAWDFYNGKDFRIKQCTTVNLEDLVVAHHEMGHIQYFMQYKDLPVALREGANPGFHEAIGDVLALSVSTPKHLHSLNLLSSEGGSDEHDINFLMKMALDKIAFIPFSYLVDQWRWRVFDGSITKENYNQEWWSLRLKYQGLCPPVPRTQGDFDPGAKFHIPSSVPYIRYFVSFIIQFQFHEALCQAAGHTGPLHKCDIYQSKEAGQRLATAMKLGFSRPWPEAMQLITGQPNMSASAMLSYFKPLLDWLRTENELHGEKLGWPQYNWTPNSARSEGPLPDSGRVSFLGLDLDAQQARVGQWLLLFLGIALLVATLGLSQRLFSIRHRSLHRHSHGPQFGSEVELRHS

As to `O=C(OC1O[C@H](CO)[C@@H](O)[C@H](O)[C@H]1O)C1CSSC1` (stereo not given in full), the IC50 (read-out: IC50) amounted to 347 µM.
For the molecule `N=C(N)NCCC[C@@H](N)C(=O)O`, the IC50 entry is on record as “Not Active”.
The same measure, in the same setting: as for `O=C(O)C1CSSC1`, the entry is “Not Active”.
The same measure, in the same setting: as for `N[C@@H](CC(=O)O)C(=O)O` [ASPARTIC ACID], the entry is “Not Active”; as for `N=C(N)NCCC[C@H](N)C(=O)O` [ARGININE], “Not Active”.
